This passage reports IC50 results from patent US8779154B2, “Fused ring compounds for inflammation and immune-related uses” (priority 2006, dated 2014).

The assay has as its system IL-2 production. Put plainly: Inhibition of IL-2 production in PHA-activated Jurkat cells (ELISA). The format is cell-based. Conditions: Homo sapiens, PHA 2.5 μg/mL, IL-2 ELISA. Here is the method: Jurkat cells were placed in a 96 well plate (0.5 million cells per well in 1% FBS medium) then a test compound of this invention was added at different concentrations. After 10 minutes, the cells were activated with PHA (final concentration 2.5 μg/mL) and incubated for 20 hours at 37° C. under CO2. The final volume was 200 μL. Following incubation, the cells were centrifuged and the supernatants collected and stored at −70° C. prior to assaying for IL-2 production. A commercial ELISA kit (IL-2 Eli-pair, Diaclone Research, Besancon, France) was used to detect production of IL-2, from which dose response curves were obtained. The IC50 value was calculated as the concentration at which 50% of maximum IL-2 production after stimulation was inhibited versus a non-stimulation control.
(In general: In an ELISA, binding on a coated surface is turned into a signal by an enzyme label.)

Usually IC50 stands for the concentration needed to halve the response being measured. The low end stands for greater potency in that assay, the high end for weaker potency in that assay. For the compound `COc1ccc2c(c1)-c1cnc(NC(=O)c3c(F)cccc3F)nc1CCO2` [Compound 94], for the setting “Jurkat, 20 h”, the IC50 was greater than 1000 nM.
The compound `O=C(Nc1c(F)cccc1F)c1nc2c(s1)-c1ccccc1CCC2` [Compound 31] registered an IC50 (Jurkat, 20 h) greater than 1000 nM.
On the same count and under the same terms, in the case of `COc1ccc2c(c1)-c1sc(NC(=O)c3ccncc3F)nc1CCO2` [Compound 9] it was greater than 1000 nM.
As for `N#Cc1ccc2c(c1)CCCc1nc(NC(=O)c3c(F)cccc3F)sc1-2` [Compound 59], for the setting “Jurkat, 20 h”, the concentration for half-maximal inhibition (IC50) was 30 to 100 nM.
The compound `CN1Cc2ccc(Br)cc2-c2sc(C(=O)Nc3c(F)cccc3F)nc2C1=O` [Compound 140] gave an IC50 (Jurkat, 20 h) greater than 1000 nM.
The same measure, in the same setting: in the case of `Cn1nnnc1-c1ccc2c(c1)-c1sc(C(=O)Nc3c(F)cccc3F)nc1CCC2` [Compound 39] it was no more than 30 nM; in that of `Cc1csc(-c2cccc3c2CCCc2nc(NC(=O)c4c(F)cccc4F)sc2-3)n1` [Compound 71], 250 to 500 nM.
Same read-out and setting: to `COc1ccc2c(c1)CCCCc1nc(NC(=O)c3c(F)cccc3F)ncc1-2` [Compound 98] belongs greater than 1000 nM.
As for `O=C(Nc1c(F)cccc1F)c1nc2c(s1)-c1cc(-c3ccc(O)nc3)ccc1CCC2` [Compound 117], the IC50 (Jurkat, 20 h) was in the range of 100 to 250 nM.
As for `COc1cccc2c1CCCc1nc(NC(=O)c3c(F)cccc3F)sc1-2` [Compound 12], the IC50 (Jurkat, 20 h) is no more than 30 nM.
As to `COc1cccc2c1CCCc1nc(NC(=O)c3c(F)cccc3F)ncc1-2` [Compound 91], under “Jurkat, 20 h”, the IC50 was 100 to 250 nM.
The same measure, in the same setting: in the case of `COc1ccc2c(c1)-c1sc(C(=O)Nc3ccncc3C)nc1CCC2` [Compound 10] it was 250 to 500 nM; in that of `O=C(Nc1c(F)cccc1F)c1nc2c(s1)-c1cc(-c3ccnc(F)c3)ccc1CCC2` [Compound 118], 100 to 250 nM.
On the same count and under the same terms, to `O=C(Nc1c(F)cccc1F)c1nc2c(s1)-c1cc(-c3cnco3)ccc1CCC2` [Compound 19] belongs no more than 30 nM; to `O=C(Nc1c(F)cccc1F)c1ccc2c(c1)CCCc1cnc(-c3cccnc3)nc1-2` [Compound 142], 100 to 250 nM.
`O=C(Nc1c(F)cccc1F)c1nc2c(s1)-c1cc(Br)ccc1CCC2` [Compound 18]: the IC50 (Jurkat, 20 h) was in the range of 30 to 100 nM.
Consider `COc1cccc2c1CCCc1nc(NC(=O)c3ccncc3F)sc1-2` [Compound 14], for which the IC50 (Jurkat, 20 h) is 100 to 250 nM.
For the setting “Jurkat, 20 h”, `O=C(Nc1c(F)cccc1F)c1nc2c(s1)-c1cc(O)ccc1CCC2` [Compound 32] gave an IC50 of 30 to 100 nM.
In the case of `O=C(Nc1ccc2c(c1)CCCc1cnc(-c3ccncc3)nc1-2)c1c(F)cccc1F` [Compound 108], the IC50 (Jurkat, 20 h) was 30 to 100 nM.
Regarding `Fc1cccc(F)c1CN(Cc1c(F)cccc1F)c1ccc2c(c1)CCCc1cnc(-c3cccnc3)nc1-2` [Compound 103], for the setting “Jurkat, 20 h”, the IC50 is greater than 1000 nM.
In turn, `O=C(Nc1c(F)ccc([N+](=O)[O-])c1F)c1nc2c(s1)-c1cc([N+](=O)[O-])ccc1CCC2` [Compound 36] yielded an IC50 (20 hours) of 500 to 1000 nM.
In turn, `O=C1OCc2ccc(Br)cc2-c2sc(NC(=O)c3c(F)cccc3F)nc21` [Compound 139] had an IC50 (Jurkat, 20 h) greater than 1000 nM.
Consider `O=C(Nc1c(F)cccc1F)c1nc2c(s1)-c1cc(-c3ccncc3)ccc1CCC2` [Compound 125], for which the IC50 (Jurkat, 20 h) lay in the range of 30 to 100 nM.
Consider `O=Cc1cccc2c1CCCc1nc(NC(=O)c3c(F)cccc3F)sc1-2` [Compound 67], for which, where the note is “Jurkat, 20 h”, the IC50 was in the range of 500 to 1000 nM.
As to `N#Cc1cc2c(s1)CCCc1nc(NC(=O)c3c(F)cccc3F)sc1-2` [Compound 86], for the setting “Jurkat, 20 h”, the IC50 was greater than 1000 nM.
Under “Jurkat, 20 h”, `O=C(Nc1nc2c(=O)oc3ccc(C(F)(F)F)cc3c2s1)c1c(F)cccc1F` [Compound 1] returned an IC50 greater than 1000 nM.
`COc1ccc2c(c1)CCCc1c-2ncc(NC(=O)c2c(F)cccc2F)[n+]1[O-]` [Compound 97] yielded a 50% inhibitory concentration (IC50) (Jurkat, 20 h) of 500 to 1000 nM.
With `Cc1nc(-c2ccc3c(c2)CCCc2nc(NC(=O)c4c(F)cccc4F)sc2-3)no1` [Compound 60], the concentration for half-maximal inhibition (IC50) (Jurkat, 20 h) lay in the range of 30 to 100 nM.
Turning to `O=C(Nc1nc2c(s1)-c1cccc(-c3nccs3)c1CCC2)c1c(F)cccc1F` [Compound 70], the IC50 (Jurkat, 20 h) fell in the range of 100 to 250 nM.
